Measured values reported in US20050256132A1, “Use of ER selective NF-kB inhibitors for the treatment of sepsis” (priority 2003, published 2005).

Legend:
Type in all cases: cell-based, human
CK = CK activity in lysate of ERα expressing HAECT-1 cells; settings: FIG. 1D
Method: (A) The effect of compound 67 on NF-κB mediated luciferase reporter activity in HAECT-1 cells expressing ERα. […] (C) The effect of compound 67 on the human IL-6 promoter luciferase reporter activity in HAECT-1 cells expressing either ERα (squares) or ERβ (diamonds). (D) The remaining lysate from (A) was used to determine CK activity.
(§1) HAECT-1 cells (Chadwick C C, et al., Proc Natl Acad Sciences, 2005, 102(7): 2543-2548) were cultured in EGM (GIBCO, Rockville, Md.) containing 10% FBS, 1% GlutaMAX and 0.1% Antimycotic-Antibiotic in Falcon T-175 culture flasks at 34° C. in 5% CO2 and infected for four hours with Ad5-wt-ER virus. After overnight recovery, the cells were infected for 2 hours with the Ad5-3x(NFκB).Luc or Ad5-IL6.Luc virus. Compound 67 and 2 ng/ml IL-1 were added to the cells for 15-20 h and the cell lysate was assayed for luciferase activity and evaluated for CK expression (Stanbio Laboratories, Texas). The values are reported as mean±SEM with n=4 from at least 3 independent experiments.

Creatine Kinase = assay: Creatine kinase expression in Ad5-wt-ERα infected HAECT-1 cells (Table 1); settings: Homo sapiens, HAECT1, read-out: Creatine Kinase EC50
Method: T-175 flasks of 100% confluent HAECT-1 cells (immortalized human aortic endothelial cells) were washed with 8 mL of HBSS (HEPES buffered saline solution) and infected for four hours with 6 mL of a 1:10 dilution of Ad5-wt-hERα virus (an adenovirus transfection vector that mediates CMV promoter driven expression of human ERα) in phenol red free Endothelial Cell Basal medium (Clonetics, San Diego Calif., Catalog # CC-3129) containing 0.25% bovine serum albumin (EBM-BSA). After four hours, cells were washed with EBM-BSA and incubated overnight in the same medium. Following overnight incubation, cells were washed with EBM-BSA and infected for 2 hours with 6 mL of a 1:10 dilution of Ad5-3x(NF-κB).Luc virus (Adenovirus luciferase expression vector driven by 3 repeats of the MHC NF-κb site 5′ to the thymidine kinase promoter) in EBM-BSA. […]
ERα infected HAECT-1 cells or control cells were thawed, diluted 42× in warm EBM-BSA, plated into 96-well plates at 0.1 mL/well and incubated for 4 hours at 34° C. […] Luciferase was determined on a Wallac Victor Luminometer (Gaithersburg, Md.) using 10 μL of lysate and mixing with 100 μL of Promega Luciferase Assay reagent. Creatine kinase was determined from the rate of increase in A340 following addition of 100 μL of CK assay reagent (Sigma, cat. No 47-10) to the remainder of the cell lysate. […]

NF-κB = assay: IL-1β stimulated NF-κB reporter activity in ERα expressing HAECT-1 cells; settings: 1 μM ICI, 1 μM compound 67, FIG. 1B
Method: as §1

Row | SMILES | stimulation of CK activity (CK) | EC50 (CK; Homo sapiens, HAECT1) [nM] | EC50 (Creatine Kinase) [nM] | antagonism of the activity of compound 67 on NF-κB reporter (NF-κB)
1 | C[C@]12CC[C@@H]3c4ccc(O)cc4CC[C@H]3[C@@H]1CC[C@@H]2O [Example E2, 17β-estradiol, reference compound] | approximately 1.7 fold | 2 | 5.8 | –
2 | C[C@]12CC[C@@H]3c4ccc(O)cc4C[C@@H](CCCCCCCCC[S+]([O-])CCCC(F)(F)C(F)(F)F)[C@H]3[C@@H]1CC[C@@H]2O (stereo partly shown) [ICI 182,780, reference compound] | – | – | – | effectively antagonized
